# In paper PMC6910946, “Multiple roles of Bet v 1 ligands in allergen stabilization and modulation of endosomal protease activity” (Allergy, 2019):
# What was measured:
# Bet_v_1 = molecular target: T1, Bet_v_1 (Betula pendula, UniProt P15494); assay: NMR spectroscopy (1H-15N HSQC) binding confirmation
# T1 construct: made in house
# T1 sequence (P15494 1-160): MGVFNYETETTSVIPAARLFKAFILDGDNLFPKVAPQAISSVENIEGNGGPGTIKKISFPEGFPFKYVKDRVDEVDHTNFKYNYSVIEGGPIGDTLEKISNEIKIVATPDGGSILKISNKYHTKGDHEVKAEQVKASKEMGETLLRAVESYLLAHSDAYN
# Source text: Surface acoustic wave (SAW) technology and NMR spectroscopy were used to observe the interaction of Bet_v_1 with the selected compounds, including determination of the dissociation constant (K d). The influence of ligand binding on the secondary structure elements and the thermal stability of Bet_v_1 was monitored using circular dichroism (CD, JASCO J‐815 spectropolarimeter, Jasco) and Fourier transform infrared (FTIR) spectroscopy (Tensor II FTIR system, Bruker Optics Inc). A detailed description of these methods is available (Appendix [Link], [Link]).
# To validate the interactions determined by SAW, we used NMR spectroscopy to test the specific binding of PPE1, LTA, LPS, and Kdo2 to Bet_v_1 (Table 1, Figure S2). […] The commercially available PPA1 was used as a substitute for PPE1 to identify the phytoprostane binding site(s).
# The NMR data were acquired with either a 600 or 800 MHz Agilent DD2 spectrometer with a cryogenically cooled probe using the pulse sequence gNhsqc. Bet v 1 assignments were taken from.^2 The experiments were performed under the following conditions: LTA: 45 µM Bet v 1 and 300 µM LTA in PBS, 10% ^2H2O, 60 µM DSS; PPE1: 25 µM Bet v 1 and 2 µM PPE1 in PBS, 5% ^2H-(d6) DMSO, 10% ^2H2O, 60 µM DSS; PPA1: 100 µM Bet v 1 and 302 µM PPA1 (Cayman Chemical, MI, USA) in PBS, 8.7% ^2H-(d6) DMSO, 10% ^2H2O, 60 µM DSS; LPS: 100 µM Bet v 1 and 400 µM LPS in PBS pH 7.4, 10% ^2H2O, 60 µM DSS. Kdo2: 100 µM Bet v 1 and 422 µM Kdo2 in PBS pH 7.0, 10% ^2H2O, 8.6% ^2H-(d6) DMSO, 60 µM DSS.
# cathepsin S = molecular target: T2, cathepsin S (Homo sapiens, UniProt P25774); assay: Enzymatic activity assay, fluorogenic substrate Z-VVR-AMC; type: biochemical
# T2 construct: made in house
# Experimental: (§1) To evaluate the influence of Bet_v_1 ligands on cathepsin S and legumain activities, 10 nmol/L of protease was incubated with 100 µmol/L of ligand (unless otherwise stated) and 50 µmol/L of fluorogenic substrate in digestion buffer (0.1 mol/L sodium acetate pH 5.0, 0.1 mol/L sodium chloride, 5 mmol/L EDTA, and 2 mmol/L DTT), as described in the Appendix [Link], [Link]. The effect of birch pollen extract (BPE) (20‐200 µg/mL) on the cathepsin S and legumain activities was assessed in parallel. The inhibitory effect of PPE1 was assessed by replacing DTT with 0.5 mmol/L TCEP. Activities of recombinant rat cathepsin B (provided by Dr Lukas Mach) and papain (Merck) at 10 nmol/L were assayed using Z‐FR‐AMC (Bachem) as a fluorogenic substrate.
# For the detection of cathepsin or legumain activities in the microsomal fraction, 8 µg of microsomal extract was incubated with 50 µM fluorogenic substrate with or without inhibitor in assay buffer (100 mM citrate pH 4.8 and 2 mM DTT). The enzymatic reactions were carried out in a 50 µL reaction volume in a 96-half-well black flat bottom assay plate (Corning Inc., Corning, NY, USA) at 37°C. The fluorescence signal was recorded using a Tecan Infinite-200 plate reader (Tecan, Männedorf, Switzerland) at an excitation wavelength of 380 nm and emission wavelength of 460 nm for 15 min of continuous measurement with a 30-s interval reading. The fluorogenic substrates used for cathepsin S and legumain were Z-VVR-AMC and Z-AAN-AMC (Bachem, Bubendorf, Switzerland), respectively. The inhibitors used for cathepsin S and legumain were Z-FL-COCHO (Sigma-Aldrich, CA, USA) and Ac-YVAD-CMK (Bachem), respectively^11.
# papain = molecular target: T3, papain (Carica papaya, UniProt P00784); assay: Enzymatic activity assay, fluorogenic substrate Z-FR-AMC; type: biochemical; settings: PPE1 5 µmol/L, 15 min (Figure 4A)
# T3 construct: purchased Merck
# T3 sequence (P00784 134-345): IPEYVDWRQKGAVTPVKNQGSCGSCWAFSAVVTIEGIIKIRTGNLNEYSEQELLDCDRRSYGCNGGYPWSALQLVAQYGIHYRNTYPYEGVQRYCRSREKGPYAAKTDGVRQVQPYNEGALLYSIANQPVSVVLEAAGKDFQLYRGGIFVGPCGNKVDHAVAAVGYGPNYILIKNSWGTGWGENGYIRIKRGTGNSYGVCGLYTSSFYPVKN
# Experimental: as §1
# [1] = molecular target: T4, recombinant rat cathepsin B (Rattus norvegicus, UniProt P00787); assay: as above; type: biochemical; settings: PPE1 5 µmol/L, 15 min (Figure 4A)
# T4 construct: gift of Dr Lukas Mach
# Experimental: as §1
# T2 sequence (P25774 115-331): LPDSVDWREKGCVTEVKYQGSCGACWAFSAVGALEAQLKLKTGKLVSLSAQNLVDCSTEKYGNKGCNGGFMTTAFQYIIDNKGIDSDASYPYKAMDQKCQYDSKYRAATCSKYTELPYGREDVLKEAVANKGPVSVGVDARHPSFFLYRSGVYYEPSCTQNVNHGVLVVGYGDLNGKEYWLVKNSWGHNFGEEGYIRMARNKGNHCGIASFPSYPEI
# T4 sequence (P00787 80-339): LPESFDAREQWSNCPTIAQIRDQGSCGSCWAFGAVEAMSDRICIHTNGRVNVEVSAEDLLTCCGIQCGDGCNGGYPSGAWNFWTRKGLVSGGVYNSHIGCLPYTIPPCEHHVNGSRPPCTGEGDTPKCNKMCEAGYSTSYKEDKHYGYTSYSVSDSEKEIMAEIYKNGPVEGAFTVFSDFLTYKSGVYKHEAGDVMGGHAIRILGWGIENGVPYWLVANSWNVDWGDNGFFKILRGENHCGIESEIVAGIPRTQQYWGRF
smiles,measurement,setting,value
"CCC1C(=O)CC(O)C1/C=C/C(O)CCCCCCCC(=O)O (stereo not shown) [PPE1, E1 phytoprostanes]","NMR (binding confirmation, K d)","Bet_v_1; 15N-labeled Bet v 1, direct measurement of Kd prevented by intermediate exchange",low to sub‐µmol/L
same,specific binding to Bet v 1 (1H-15N HSQC spectra),Bet_v_1; absence vs presence of compound,specifically binds
same,cathepsin S fluorogenic activity,"cathepsin S; 10 nmol/L protease, 100 µmol/L ligand, 50 µmol/L substrate, pH 5.0, 2 mmol/L DTT (Figure 3A)",specifically inhibited
same,cathepsin S fluorogenic activity,"cathepsin S; PPE1 5 µmol/L, 15 min (Figure 4A)",inhibits
same,cathepsin S activity in the presence of TCEP,"cathepsin S; PPE1 5 µmol/L, 0.5 mmol/L TCEP instead of DTT (Figure 4D)",completely abolished
same,papain fluorogenic activity,papain,inhibits
same,rat cathepsin B fluorogenic activity,[1],inhibits
